Test results reported in paper PMC10531311, “Anti-Inflammatory Activities of 8-Benzylaminoxanthines Showing High Adenosine A2A and Dual A1/A2A Receptor Affinity” (International Journal of Molecular Sciences, 2023).

Tests used:
SH-SY5Y cells = assay: Neurotoxicity, MTS cell viability; assay type: cell-based, human; conditions: 0.098 μM to 100 μM, 24 h
Experimental: (§1) Drug safety is a critical step in the process of drug development. […] In our studies, neurotoxicity and hepatotoxicity were evaluated in SH-SY5Y and HepG2 cells, respectively. The compounds were tested at 11 concentrations from 0.098 μM to 100 μM (see Figure 5). Cell viability was assessed after incubation for 24 h with the SH-SY5Y line and for 48 h with the HepG2 line.
(§2) To evaluate neurotoxicity and hepatotoxicity, the human neuroblastoma cell line SH-SY5Y (ATCC® no. CRL-2266™) and hepatoma cell line HepG2 (ATCC® no. HB-8065™) were used, respectively. The cells (SH-SY5Y: 5 × 10^3 cells/100μL/well and HepG2: 7 × 10^3 cells/100 μL/well) were seeded in transparent 96-well plates (Nunc) in DMEM supplemented with 10% FBS and cultured overnight. The next day, the medium was changed to medium containing dimethylsulfoxide (DMSO < 0.1%, vehicle control) or an increasing concentration of compounds MZ-1483 (19), MZ-1490 (22) and MZ-1495 (24) ([…]–100 × 10^−6 M). To perform dose-response analysis, two-fold serial dilutions (11 points) were prepared. Treatment with compounds was performed for 48 h. After the incubation time, the cell viability was examined using an MTS-based [3-(4,5-dimethylthiazol-2-yl)-5-(3-carboxymethoxyphenyl)-2-(4-sulfophenyl)-2 H tetrazolium] CellTiter96® AQueous One Solution Cell Proliferation Assay (Promega, Madison, WI, USA) following the manufacturer’s protocol. Briefly, 20 μL of MTS solution was pipetted into each well containing 100 μL of culture or culture medium (negative control) and incubated at 37 °C for 1 h. After incubation time, formazan product turnover absorbance was measured at 490 nm using the microplate reader (Tecan Spark®, Tecan Group Ltd., Maennedorf, Switzerland). A reference wavelength of 630 nm was used.

HepG2 cells = assay: Hepatotoxicity, MTS cell viability; assay type: cell-based, human; conditions: 0.098 μM to 100 μM, 48 h
Experimental: as §1, §2

human adenosine A2BR = target: T1, human adenosine A2BR (Homo sapiens, UniProt P29275); assay: Radioligand binding at human adenosine A2B receptor vs. [3H]PSB-603; conditions: for inhibition at 1 µM: CHO cells, read-out: A2BR vs. [³H]PSB-603 % Inhibition ± SEM at 1 µM; for Ki: human recombinant receptor in CHO cells, read-out: A2BR vs. [³H]PSB-603 Ki ± SEM
T1 construct: expressed in transfected cells; host or cells: CHO cells
T1 sequence (P29275 1-332): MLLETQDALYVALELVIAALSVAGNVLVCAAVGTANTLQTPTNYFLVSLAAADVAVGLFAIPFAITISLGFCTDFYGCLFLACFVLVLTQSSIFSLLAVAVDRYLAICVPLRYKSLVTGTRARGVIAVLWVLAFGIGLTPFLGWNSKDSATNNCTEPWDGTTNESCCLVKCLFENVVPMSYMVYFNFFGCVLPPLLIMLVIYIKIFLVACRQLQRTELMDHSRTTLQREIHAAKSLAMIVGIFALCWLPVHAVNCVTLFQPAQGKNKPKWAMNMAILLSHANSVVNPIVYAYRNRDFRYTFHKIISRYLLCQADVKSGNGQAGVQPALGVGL
Experimental: Affinities for adenosine receptors were evaluated in radioligand binding assays as previously described. Human adenosine receptors were stably expressed in CHO cells. The following radioligands were used: [^3H]2-chloro-N^6-cyclopentyladenosine ([^3H]CCPA) for A1R; [^3H]3-(3-hydroxypropyl)-7-methyl-8-(m-methoxystyryl)-1-propargylxanthine ([^3H]MSX-2) for A2AR; [^3H]8-(4-(4-(4-chlorophenyl)piperazine-1-sulfonyl)phenyl)-1-propylxanthine ([^3H]PSB-603) for A2BR; [^3H]phenyl-8-ethyl-4-methyl-(8R)-4,5,7,8-tetrahydro-1H-imidazo [2,1-i]purine-5-one ([^3H]PSB-11) for A3R. Initially, compounds were tested at a concentration of 1 µM. […] At least three independent experiments were performed. Data were analyzed using GraphPad PRISM version 5.0 or higher (Graph Pad, San Diego, CA, USA). Ki were calculated using the Cheng–Prusoff equation.

CYP3A4 = target: T2, CYP3A4 (Homo sapiens, UniProt P08684); assay: Drug-drug interactions, CYP3A4 P450-Glo; assay type: in vitro ADME; conditions: 10 µM
T2 construct: purchased Promega (Madison, WI, USA)
Experimental: To predict potential drug-drug interactions (DDI) effects on three of the most relevant cytochrome P450 (CYP), isoforms CYP3A4, CYP2D6 and CYP2C9 were investigated at a concentration of 10 µM. The results were compared with the effects of 1 µM of the selective inhibitors ketoconazole (CYP3A4), quinidine (CYP2D6) and sulfaphenazole (CYP2C9).
The influence of the tested compounds on recombinant human cytochromes was determined with the use of CYP3A4, CYP2D6 and CYP2C9 P450-Glo™ kits and protocols provided by Promega (Madison, WI, USA). Compounds were tested at a concentration of 10 μM. Reference inhibitors: Ketoconazole (CYP3A4), quinidine (CYP2D6) and sulfaphenazole (CYP2C9) were tested at 1 μM. The luminescent signals were measured using a microplate reader EnSpire PerkinElmer (Waltham, MA, USA).

[1] = Metabolic stability in human liver microsomes; assay type: in vitro ADME; conditions: for number of metabolites formed: HLMs, 120 min; for remaining at 2 h: human, liver microsomes, after 120 min of incubation with HLMs, read-out: % Remaining in the Reaction Mixture
Experimental: In our study, the compounds were incubated for 120 min with HLMs, followed by liquid chromatography-mass spectrometry (LC-MS) to identify the formed metabolites.
Human liver microsomes (HLMs) were purchased from Sigma-Aldrich (St. Louis, MO, USA; catalog nr M9066-1VL). The studies with microsomes were supported by MetaSite 6.0.1 software provided by Molecular Discovery Ltd. (Hertfordshire, UK), which allowed for the determination of the most probable sites of metabolism. The compounds were incubated with HLMs for 120 min. After the addition of methanol and centrifugation, the supernatants were analyzed with the Waters ACQUITY™ TQD system (Waters, Milford, CT, USA). All reference drugs used (caffeine, ketoconazole, quinidine and sulfaphenazole) were purchased from Sigma-Aldrich (St. Louis, MO, USA).

T2 sequence (P08684 whole entry): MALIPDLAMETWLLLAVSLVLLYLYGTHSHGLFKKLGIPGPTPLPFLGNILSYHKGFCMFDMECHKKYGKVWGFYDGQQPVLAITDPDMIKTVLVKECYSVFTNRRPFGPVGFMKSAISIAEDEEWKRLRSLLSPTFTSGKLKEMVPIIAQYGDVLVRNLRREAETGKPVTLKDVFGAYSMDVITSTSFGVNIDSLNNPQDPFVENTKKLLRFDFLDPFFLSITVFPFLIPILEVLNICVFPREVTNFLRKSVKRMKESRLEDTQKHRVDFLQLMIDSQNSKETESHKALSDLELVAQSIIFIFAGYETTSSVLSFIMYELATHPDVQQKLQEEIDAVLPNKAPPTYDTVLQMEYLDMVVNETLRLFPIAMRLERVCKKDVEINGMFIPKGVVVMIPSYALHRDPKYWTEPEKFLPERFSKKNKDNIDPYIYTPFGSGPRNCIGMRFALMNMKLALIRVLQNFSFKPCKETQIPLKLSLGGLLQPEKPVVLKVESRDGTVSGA

| melting point | inhibition at 1 µM (human adenosine A2BR) | Ki (human adenosine A2BR) | CYP3A4 activity, % of the control activity (CYP3A4) | number of metabolites formed [1] | remaining at 2 h [1] | Compound | neurotoxicity, cell viability (in words) (SH-SY5Y cells) | hepatotoxicity, cell viability (in words) (HepG2 cells) |
| --- | --- | --- | --- | --- | --- | --- | --- | --- |
| 223 to 225 °C | 14% | > 1000 nM | ~ 20% | two metabolites | > 95% | C#CCn1c(=O)c2c(nc(NCc3ccccc3Cl)n2C)n(C)c1=O [compound 19, 8-((2-Chlorobenzyl)amino)-3,7-dimethyl-1-(prop-2-yn-1-yl)-3,7-dihydro-1H-purine-2,6-dione] | high safety profile | high safety profile |
| 276 to 278 °C | 41% | > 1000 nM | around 75% | one metabolite | > 90% | C#CCn1c(=O)c2c(nc(NCc3c(F)cccc3Cl)n2C)n(C)c1=O [compound 22, 8-((2-Chloro-6-fluorobenzyl)amino)-3,7-dimethyl-1-(prop-2-yn-1-yl)-3,7-dihydro-1H-purine-2,6-dione] | high safety profile | high safety profile |
| 248 to 250 °C | 25% | > 1000 nM | ~ 20% | one metabolite | > 95% | C#CCn1c(=O)c2c(nc(NCc3cccc(Br)c3)n2C)n(C)c1=O [compound 24, 8-((3-Bromobenzyl)amino)-3,7-dimethyl-1-(prop-2-yn-1-yl)-3,7-dihydro-1H-purine-2,6-dione] | high safety profile | high safety profile |
